Data published in patent US6048893A, “Substituted phenyl compounds with a substituent having A 1,3-benzodioxole ring” (Rhone-Poulenc Rorer Limited, priority 1995, dated 2000).
pIC50: −log10 of the molar value. Non-standard residues stand in square brackets, D forms with d. Residues, ends and D or L forms follow the SMILES beside them.

Assays:
A10 cell ETA receptors = biological target: T1, A10 cell ETA receptors (Rattus norvegicus, UniProt P26684); experiment: Inhibition of [125I]-ET-1 binding to A10 cell ETA receptors; conditions: [125I]-ET-1 20 pM, 2 hours at 37 C; read-out: concentration producing 50% inhibition of the binding of [125I]-ET-1 to A10 cell ETA receptors
T1 construct: endogenous in cells; host or cells: A10 cells (frozen cells, about 60,000 per well)
T1 sequence (P26684 21-426): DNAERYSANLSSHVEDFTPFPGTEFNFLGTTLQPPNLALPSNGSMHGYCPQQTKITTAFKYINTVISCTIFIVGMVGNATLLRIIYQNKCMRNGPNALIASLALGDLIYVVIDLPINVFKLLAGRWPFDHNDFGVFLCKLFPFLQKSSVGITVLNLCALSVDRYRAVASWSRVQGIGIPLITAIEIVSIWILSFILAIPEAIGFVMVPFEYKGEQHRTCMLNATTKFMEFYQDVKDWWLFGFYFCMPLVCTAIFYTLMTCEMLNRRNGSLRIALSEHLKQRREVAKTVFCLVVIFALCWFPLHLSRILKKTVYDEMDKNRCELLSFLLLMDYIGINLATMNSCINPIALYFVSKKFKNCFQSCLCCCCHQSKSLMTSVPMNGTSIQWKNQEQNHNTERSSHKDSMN
Procedure: A) Preparation of ETA Receptors:
A10 cells are grown to confluence in Dulbecco's modified essential medium containing 10% foetal calf serum. Two days after the final medium change cells are harvested by scraping from the base of the flask and centrifuged at 1500 rpm for 10 minutes at 4-- C in an bench centrifuge. The resulting pellets are washed in 50 mM Hepes buffer pH 7.3 containing calcium chloride (1 mM) and magnesium chloride (5 mM) and resuspended at a density of 140,000 cells/ml in the same. Cell suspensions are then frozen using a mixture of methanol and solid carbon dioxide and stored at -20-- C until required. For use in the assay cells are diluted to the required density with Hepes buffer pH 7.3.
(§1) Assays are performed using Millipore 96 well filtration plates with 0.22 μm filters in a final volume of […]. Mixtures consisting of test compound and [^125 I]-ET-1 (20 pM) in buffer pH 7.4 containing 0.1% bovine serum albumin are treated with either A10 cells or cerebellum protein. Total and non-specific binding are measured in the absence and presence of unlabeled ET-1 (100 nM). Approximately 60,000 A10 cells are used per well or 5 μg of cerebellum protein. Plates are incubated for 2 hours at 37-- C before the reaction is terminated by vacuum filtration. Plates are washed twice with assay buffer at 4-- C and the filters are punched out for gamma counting.

[1] = biological target: T2, rat cerebellum ETB receptors (Rattus norvegicus, UniProt P21451); experiment: Inhibition of [125I]-ET-1 binding to rat cerebellum ETB receptors; conditions: [125I]-ET-1 20 pM, 2 hours at 37 C; read-out: concentration producing 50% inhibition of the binding of [125I]-ET-1 to rat cerebellum ETB receptors
T2 construct: from tissue; host or cells: rat cerebellum, particulate fraction (4000 g pellet)
T2 sequence (P21451 27-442): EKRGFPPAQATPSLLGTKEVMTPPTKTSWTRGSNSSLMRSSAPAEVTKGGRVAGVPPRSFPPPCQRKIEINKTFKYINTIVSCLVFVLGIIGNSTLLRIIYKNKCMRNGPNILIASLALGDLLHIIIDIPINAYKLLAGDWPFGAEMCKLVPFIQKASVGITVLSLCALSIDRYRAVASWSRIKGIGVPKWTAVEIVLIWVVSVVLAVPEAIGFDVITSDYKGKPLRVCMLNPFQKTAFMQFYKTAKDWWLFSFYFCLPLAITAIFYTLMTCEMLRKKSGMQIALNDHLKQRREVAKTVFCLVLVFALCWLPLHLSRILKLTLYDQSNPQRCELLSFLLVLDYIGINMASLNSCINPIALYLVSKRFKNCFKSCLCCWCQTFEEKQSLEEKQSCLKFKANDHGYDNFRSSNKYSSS
Procedure: B) Preparation of ETB Receptors:
Rats are killed by cervical dislocation and the cerebellum tissue is removed into ice cold Tris buffer pH 7.4 containing sucrose (0.25M), ethylenediaminetetracetic acid (3 mM), and a cocktail of protease inhibitors. After homogenizing using a glass/teflon manual homogenizer, the samples are centrifuged at 4-- C for 17 minutes at 1000 g, and the resulting supernatants are retained. This material is centrifuged at 4000 g for 35 minutes at 4-- C and the pellets are resuspended in 50 mM Tris buffer pH 7.4, and the protein concentration is measured. Aliquots of […] are frozen in a mixture of methanol and solid carbon dioxide and stored at -20-- C until required. For use in the assay samples are diluted to the required concentration with Tris buffer pH 7.4 containing 0.1% bovine serum albumin.
as §1, with “Plates are washed twice with assay buffer at 4-- C and the filters are punched out for gamma counting.” left out

hamster bleomycin model = conditions: cited from earlier work

pIC50 (A10 cell ETA receptors)	Structure (SMILES)	pIC50 [1]	anti-fibrotic effect (hamster bleomycin model)
8.22	Cc1ccccc1[C@H](Oc1cc(OCc2ccc3c(c2)OCO3)ccc1C#N)C(=O)O	4.46	
	CC(C)C[C@@H]1NC(=O)[C@@H](C(C)C)NC(=O)[C@@H]2CCCN2C(=O)[C@@H](CC(=O)O)NC(=O)[C@@H](Cc2c[nH]c3ccccc23)NC1=O [BQ123] (cyclo(L[dW][dD]P[dV]))		anti-fibrotic effects
